{"source": "patent US20050037436A1", "about": "“Test systems and the use thereof for identifying and characterizing compounds” (priority 2000, published 2005)", "key": {"[1]": {"target": "T1, human muscarinic M1 acetylcholine receptor (Homo sapiens, UniProt P11229)", "T1 construct": "The full-length cDNA of a human muscarinic receptor 1 (huM1Rez); expressed in transfected cells; host or cells: HEK-293, transient (pEGFP-N3)", "T1 sequence (P11229 1-460)": "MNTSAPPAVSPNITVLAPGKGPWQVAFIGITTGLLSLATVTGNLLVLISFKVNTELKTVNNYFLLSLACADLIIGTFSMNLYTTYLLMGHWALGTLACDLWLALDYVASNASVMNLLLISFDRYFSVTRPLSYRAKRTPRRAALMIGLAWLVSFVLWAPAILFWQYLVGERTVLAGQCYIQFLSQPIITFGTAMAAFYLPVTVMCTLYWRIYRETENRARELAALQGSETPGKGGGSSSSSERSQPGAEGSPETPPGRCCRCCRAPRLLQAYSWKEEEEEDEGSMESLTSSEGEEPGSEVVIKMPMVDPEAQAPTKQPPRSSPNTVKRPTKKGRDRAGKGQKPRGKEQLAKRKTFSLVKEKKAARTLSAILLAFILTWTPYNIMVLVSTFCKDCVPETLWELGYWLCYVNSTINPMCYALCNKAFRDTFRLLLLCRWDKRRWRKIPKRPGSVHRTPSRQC", "format": "cell-based", "settings": "400 ng/ml BAY44-4400"}, "nematodes": {"test_system": "nematodes", "assay": "Anthelmintic / neuropharmacological activity on nematodes"}, "HC110-R [2]": {"test_system": "HC110-R", "format": "cell-based, Haemonchus contortus", "settings": "for Ca2+ response to substance alone: 400 ng/ml where stated, up to 50 min or 90 min preincubation", "description": "The intracellular free Ca^2+ concentration [Ca^2+]i was measured in COS-7 and HEK293 cells transiently transfected with the HC110-R-EGFP or β2-AR-EGFP construct using the calcium imaging method (see also FIG. 11). In each case 2×10^5 COS-7 and HEK293 cells were applied to a 42 mm cover glass coated with 1% gelatine in 55 mm tissue culture dishes with 5 ml of DMEM medium (with 10% FCS and pen/strep). The transfection took place with the aid of the non-liposomal transfection reagent FuGENE 6 (Roche Molecular Biochemicals, Mannheim). […] Constructs of the HC110-R full-length clone with a GFP tag fused in the correct reading frame, and the complete cDNA of the β2-adrenergic receptor which had likewise been provided with a GFP tag at the 3′ end, were transfected.\nAfter the incubation, the cells loaded with Fura-2/AM were examined under an inverted microscope (Zeiss, Axiovert, Germany) and, in parallel with this, in a digital imaging fluorescence microscope (PTI) and differentiated into transfected and untransfected cells at a wavelength of 440 and 490 nm respectively. On average, 5-7 transfected and non transfected cells were selected by fixing an ROI (region of interest). The extinction was measured at 340 nm (calcium-bound Fura-2/AM) and 380 nm (free Fura-2/AM), and the emission was measured at 510 nm. Evaluation took place using the Image Master 1.x software by forming the quotient of 340:510 nm, 380:510 nm and the ratio of 340/380:510 nm (background corrected images) as a function of the agent added.\nAgents were always added 6 min after starting the measurement by removing an appropriate volume of Na^+ HBS buffer and pipetting the agent directly into the sample vessel for a further 30 to 50 min. The total volume in the sample vessel was constant at 1.5 ml throughout the experiment. […] Addition of CdCl2 and nifedipine took place immediately at the start of the experiment and before addition of α-LTX, and EGTA was added both at the start of the experiment and 4 min after the addition of α-LTX. Dissolved α-LTX was present in a concentration of 300 nM in 50 mM tris-HCl, pH 8.0; BAY 44-4400 was initially dissolved in pure DMSO (stock solutions between 0.004 and 10 μg/ml). The stock solutions were adjusted to the required concentration in the Na^+ HBS buffer. The maximum amount of the active substance BAY 44-4400 which could be dissolved at a final concentration of 0.1% DMSO was found by setting up serial dilutions in Na^+ HBS.\nThe data were analyzed using the Excel 98 table calculation programme. The results are derived from at least 2-4 reproduced experiments on in each case 4-8 transfected and un-transfected cells."}, "HC110-R [3]": {"test_system": "HC110-R", "format": "binding, Haemonchus contortus", "from_the_text": "Since denaturation of proteins is necessary for carrying out SDS-PAGE, there may be destruction of conformation-dependent epitopes. Antibodies or proteins which specifically recognize such epitopes may therefore no longer bind. […] BAY44-4400 differs from PF1022A by 2 morpholine residues which are covalently bonded to the phenyl rings of the two D-phenyllactyl radicals of PF1022A. […] For this purpose, total protein from untransfected HEK-293 cells and HEK-293 cells which transiently express HC110-R-Myc/His, and from the 54 kDa N terminus and the 21 kDa C terminus of HC110-R which were expressed in E. coli, were fractionated by SDS-PAGE, renatured and blotted in the usual way. […] In addition, a partially renatured SDS polyacrylamide gel with the protein fractions of untransfected HEK-293 cells, HEK-293 cells transiently transfected with HC110-R-Myc/His, and the N terminus of HC110-R expressed in E. coli and total protein from H. contortus was blotted, incubated with PF1022A-biotin and detected using streptavidin HRP."}, "HC110-R [4]": {"test_system": "HC110-R", "assay": "Ca2+ imaging of HEK-293 cells expressing HC110-R-Myc/His", "format": "cell-based, Haemonchus contortus", "settings": "stably expressing cells; 400 ng/ml added 6 min before 75 nM α-LTX"}, "[5]": {"settings": "4 ng/ml added 6 min before 75 nM α-LTX"}}, "note": "Entries after “also recorded” stand apart in the source; their conditions may differ. Read-outs that look alike come from different tables or passages of the source.", "data": [{"smiles": "CC(C)C[C@H]1C(=O)O[C@H](Cc2ccc(N3CCOCC3)cc2)C(=O)N(C)[C@@H](CC(C)C)C(=O)O[C@H](C)C(=O)N(C)[C@@H](CC(C)C)C(=O)O[C@H](Cc2ccc(N3CCOCC3)cc2)C(=O)N(C)[C@@H](CC(C)C)C(=O)O[C@H](C)C(=O)N1C", "note": "[BAY44-4400, cyclo(-D-Lac-L-MeLeu-D-p-morpholinyl-PhLac-L-MeLeu-)]", "values": [{"measurement": "carbachol-induced increase in [Ca2+]i in presence of BAY44-4400", "setting": "[1]", "result": "89 ± 5.5", "unit": "nM"}, {"measurement": "anthelmintic / nematicidal activity in words", "setting": "nematodes", "result": "very effective nematicide"}, {"measurement": "first small α-LTX-induced increase in [Ca2+]i", "setting": "HC110-R [2]; [5]", "result": "disappeared"}, {"measurement": "α-LTX-induced increase in [Ca2+]i in presence of substance", "setting": "HC110-R [2]; [5]", "result": "44 ± 6.0", "unit": "nM"}, {"measurement": "change in [Ca2+]i after preincubation with substance alone", "setting": "HC110-R [2]; 4 ng/ml or 400 ng/ml, 90 min preincubation, no α-LTX", "result": "no change in [Ca^2+]i"}, {"measurement": "α-LTX-induced increase in [Ca2+]i after preincubation", "setting": "HC110-R [2]; 4 ng/ml, 90 min preincubation, substance removed, then 75 nM α-LTX", "result": "95 ± 20.5", "unit": "nM"}, {"measurement": "plateau of [Ca2+]i after the peak", "setting": "HC110-R [2]; 4 ng/ml, 90 min preincubation, then 75 nM α-LTX", "result": "23 ± 2.6", "unit": "nM"}, {"measurement": "change in [Ca2+]i, BAY44-4400 given with piperazine", "setting": "HC110-R [2]; 400 ng/ml BAY44-4400 + 1 or 10 μM piperazine, untransfected and HC110-R-GFP-transfected cells", "result": "no change in [Ca^2+]i was detectable"}, {"measurement": "α-LTX-induced increase in [Ca2+]i in presence of substance", "setting": "HC110-R [2]; 400 ng/ml added 6 min before 75 nM α-LTX", "result": "49 ± 4.2", "unit": "nM"}, {"measurement": "plateau of [Ca2+]i above initial values after the peak", "setting": "HC110-R [2]; 400 ng/ml added 6 min before 75 nM α-LTX, 8 min after peak", "result": "11 ± 1.4", "unit": "nM"}, {"measurement": "delay of the α-LTX-induced increase", "setting": "HC110-R [2]; 400 ng/ml versus 4 ng/ml, 90 min preincubation", "result": 12, "unit": "min"}, {"measurement": "Ca2+ response to substance alone", "setting": "HC110-R [2]; no α-LTX", "result": "does not influence the Ca^2+ concentration; also recorded: neither the very effective nematicide BAY44-4400 nor the virtually ineffective antipode PF1022-001 induces a Ca^2+ response"}, {"measurement": "Ca2+ response to substance alone", "setting": "HC110-R [2]; no α-LTX, listed as BAY 44-4400", "result": "in no comparable way with a change in the intracellular Ca^2+ concentration"}, {"measurement": "Ca2+-mediated response to substance alone", "setting": "HC110-R [2]; 100, 300 or 400 ng/ml and 1 or 10 μg/ml, 50 min, untransfected and HC110-R-GFP-transfected cells", "result": "At no concentration was a Ca^2+-mediated response detectable"}, {"measurement": "mode of action on α-LTX signalling", "setting": "HC110-R [2]; HC110-R-transfected HEK-293 cells", "result": "acts as antagonist of α-LTX"}, {"measurement": "first small α-LTX-induced increase in [Ca2+]i", "setting": "HC110-R [2]; incubation 6 minutes before 75 nM α-LTX", "result": "disappears"}, {"measurement": "reduction of second α-LTX-induced increase", "setting": "HC110-R [2]; incubation 6 minutes before 75 nM α-LTX, 15 minutes after α-LTX", "result": 85, "unit": "%"}, {"measurement": "first α-LTX-induced increase in Ca2+", "setting": "HC110-R [2]; preincubated 60 minutes before 30 minutes FURA loading, 75 nM α-LTX", "result": "complete disappearance"}, {"measurement": "second α-LTX-induced increase in [Ca2+]i", "setting": "HC110-R [2]; preincubated 60 minutes before 30 minutes FURA loading, 30 minutes after 75 nM α-LTX", "result": 70, "unit": "nM"}, {"measurement": "HC110-R-specific binding in a Western blot", "setting": "HC110-R [3]; denatured proteins, no renaturation", "result": "not identifiable"}, {"measurement": "band in HEK-293 cells expressing HC110-R-Myc/His", "setting": "HC110-R [3]; renatured with urea, no band in untransfected cells", "result": "distinct band 116 kDa in size"}, {"measurement": "binding to 54 kDa N terminus of HC110-R", "setting": "HC110-R [3]; renatured, fragment expressed in E. coli", "result": "bound to the 54 kDa N terminus of HC110-R"}, {"measurement": "α-LTX-induced increase in [Ca2+]i in presence of substance", "setting": "HC110-R [4]", "result": "complete inhibition"}]}]}
